Results on 20 molecules are retold here after ChEMBL document CHEMBL1697821, “Development of a phospholipidosis database and predictive quantitative structure-activity relationship (QSAR) models” (Toxicol Mech Methods, 2008).

The test system of this series is Phospholipidosis. In words: Literature-mined public compounds from Kruhlak et al phospholipidosis modelling dataset.
With `NNc1nnc(NN)c2ccccc12` [DIHYDRALAZINE], the Phospholipidosis result is “Negative: based on the absence of positive reported data from WMDD”. The entry for `CN(C)CCCN1c2ccccc2C(C)(C)c2ccccc21` [DIMETACRINE] is “Negative: based on the absence of positive reported data from WMDD”. The entry for `CCCCC[C@H](O)/C=C/[C@@H]1[C@@H](C/C=C\CCCC(=O)O)[C@@H](O)C[C@H]1O` [DINOPROST] is “Negative: based on the absence of positive reported data from WMDD”.

With `OC(CCCN1CCCCC1)(c1ccccc1)c1ccccc1` [DIPHENIDOL], the Phospholipidosis result is reported as “Negative: based on the absence of positive reported data from WMDD”.

In the case of `CC(C)N(CCC(CCN1CCCCC1)(C(N)=O)c1ccccc1Cl)C(C)C` (stereo not given) [DISOBUTAMIDE], the Phospholipidosis entry was “Positive: strong inducer confirmed by electron microscopy”.

For `CC(C)N(CCC(C(N)=O)(c1ccccc1)c1ccccn1)C(C)C` (stereo not given) [DISOPYRAMIDE], the Phospholipidosis entry is “Negative: based on the absence of positive reported data from WMDD”. The entry for `CCN(CC)C(=S)S` [DITIOCARB] is “Negative: based on the absence of positive reported data from WMDD”. The entry for `COc1cc(CC2c3c(cc(OC)c(OC)c3OC)CC[N+]2(C)CCCOC(=O)CCC(=O)OCCC[N+]2(C)CCc3cc(OC)c(OC)c(OC)c3C2Cc2cc(OC)c(OC)c(OC)c2)cc(OC)c1OC.[Cl-].[Cl-]` (stereo not given) [DOXACURIUM CHLORIDE] is “Negative: based on the absence of positive reported data from WMDD”; for `Cn1c(=O)c2c(ncn2CC2OCCO2)n(C)c1=O` [DOXOFYLLINE] it is “Negative: based on the absence of positive reported data from WMDD”; for `COc1cccc2c1C(=O)c1c(O)c3c(c(O)c1C2=O)C[C@@](O)(C(=O)CO)C[C@@H]3O[C@H]1C[C@H](N)[C@H](O)[C@H](C)O1` [DOXORUBICIN] it is “Negative: confirmed by electron microscopy”. The entry for `CN(C)CCOC(C)(c1ccccc1)c1ccccn1` (stereo not given) [DOXYLAMINE] is “Negative: based on the absence of positive reported data from WMDD”; for `CCC(=O)O[C@H]1CC[C@H]2[C@@H]3CC[C@H]4CC(=O)[C@H](C)C[C@]4(C)[C@H]3CC[C@]12C` [DROMOSTANOLONE PROPIONATE] it is “Negative: based on the absence of positive reported data from WMDD”. Regarding `Cn1c(=O)c2c(ncn2CC(O)CO)n(C)c1=O` (stereo not given) [DYPHYLLINE], the Phospholipidosis result is “Negative: based on the absence of positive reported data from WMDD”. Under `CC[C@H]1CN2CCc3cc(OC)c(OC)cc3[C@@H]2C[C@@H]1C[C@H]1NCCc2cc(OC)c(OC)cc21` [EMETINE] stands “Positive: weak inducer based on presence of foamy macrophages and cytoplasmic vacuolations”.

As for `CN[C@@H](C)[C@H](O)c1ccccc1` [EPHEDRINE], the Phospholipidosis entry is “Negative: based on the absence of positive reported data from WMDD”. The entry for `CNC[C@H](O)c1ccc(O)c(O)c1` [EPINEPHRINE] is “Negative: based on the absence of positive reported data from WMDD”; for `COc1cccc2c1C(=O)c1c(O)c3c(c(O)c1C2=O)C[C@@](O)(C(=O)CO)C[C@@H]3O[C@H]1C[C@H](N)[C@@H](O)[C@H](C)O1` [EPIRUBICIN] it is “Negative: based on the absence of positive reported data from WMDD”. Under `CCCCC[C@H](O)/C=C/[C@@H]1[C@H]2C/C(=C/CCCC(=O)O)O[C@H]2C[C@H]1O` [EPOPROSTENOL] stands “Negative: based on the absence of positive reported data from WMDD”; under `CCCCc1ncc(/C=C(\Cc2cccs2)C(=O)O)n1Cc1ccc(C(=O)O)cc1` [EPROSARTAN], “Negative: based on the absence of positive reported data from WMDD”; under `COC(=O)CCc1ccc(OCC(O)CNC(C)C)cc1` (stereo not given) [ESMOLOL], “Negative: based on the absence of positive reported data from WMDD”.
